In PubChem BioAssay (NCI):
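Values below derive from 48-hour exposures of cells grown in 96-well plates, with endpoints linearly interpolated between the two concentrations bracketing the appropriate inhibition level. TGI: concentration producing complete growth inhibition.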

How the values were obtained:
Test in all cases: DTP human tumour cell line panel, 48 h
NCI/ADR-RES ovarian = test system: NCI/ADR-RES ovarian
MDA-MB-231 breast = test system: MDA-MB-231 breast
RXF 393 renal = test system: RXF 393 renal
SR leukemia = test system: SR leukemia
SK-MEL-28 melanoma = test system: SK-MEL-28 melanoma
TK-10 renal = test system: TK-10 renal
OVCAR-3 ovarian = test system: OVCAR-3 ovarian
KM12 colon = test system: KM12 colon
BT-549 breast = test system: BT-549 breast
SF-268 CNS = test system: SF-268 CNS
786-0 renal = test system: 786-0 renal
SK-MEL-5 melanoma = test system: SK-MEL-5 melanoma
UO-31 renal = test system: UO-31 renal
PC-3 prostate = test system: PC-3 prostate
SK-OV-3 ovarian = test system: SK-OV-3 ovarian
A549 NSCLC = test system: A549 NSCLC
A498 renal = test system: A498 renal
SF-539 CNS = test system: SF-539 CNS
HL-60(TB) leukemia = test system: HL-60(TB) leukemia
HOP-62 NSCLC = test system: HOP-62 NSCLC
DU-145 prostate = test system: DU-145 prostate
M14 melanoma = test system: M14 melanoma
HCT-116 colon = test system: HCT-116 colon
LOX IMVI melanoma = test system: LOX IMVI melanoma
RPMI-8226 leukemia = test system: RPMI-8226 leukemia
SW-620 colon = test system: SW-620 colon
UACC-257 melanoma = test system: UACC-257 melanoma
EKVX NSCLC = test system: EKVX NSCLC
MDA-MB-435 = test system: MDA-MB-435
NCI-H460 lung = test system: NCI-H460 lung
HOP-92 NSCLC = test system: HOP-92 NSCLC
SNB-19 CNS = test system: SNB-19 CNS
OVCAR-8 ovarian = test system: OVCAR-8 ovarian
CCRF-CEM leukemia = test system: CCRF-CEM leukemia
K-562 leukemia = test system: K-562 leukemia
HCT-15 colon = test system: HCT-15 colon
T-47D breast = test system: T-47D breast
UACC-62 melanoma = test system: UACC-62 melanoma
HT29 colon = test system: HT29 colon
IGROV1 ovarian = test system: IGROV1 ovarian
OVCAR-4 ovarian = test system: OVCAR-4 ovarian
SN12C renal = test system: SN12C renal
NCI-H522 lung = test system: NCI-H522 lung
HS 578T breast = test system: HS 578T breast
SF-295 CNS = test system: SF-295 CNS
CAKI-1 renal = test system: CAKI-1 renal
MOLT-4 leukemia = test system: MOLT-4 leukemia
ACHN renal = test system: ACHN renal
NCI-H226 lung = test system: NCI-H226 lung
NCI-H23 lung = test system: NCI-H23 lung
MCF7 breast = test system: MCF7 breast
HCC-2998 colon = test system: HCC-2998 colon
MALME-3M melanoma = test system: MALME-3M melanoma
COLO 205 colon = test system: COLO 205 colon
U251 CNS = test system: U251 CNS
SNB-75 CNS = test system: SNB-75 CNS
SK-MEL-2 melanoma = test system: SK-MEL-2 melanoma
OVCAR-5 ovarian = test system: OVCAR-5 ovarian

## O=C(C(Cl)=C(Nc1ccccc1)Nc1ccccc1)C(Cl)Cl
NCI/ADR-RES ovarian
  TGI: > 100 µM
MDA-MB-231 breast
  TGI: 91.2 µM
RXF 393 renal
  TGI: 56.1 µM
SR leukemia
  TGI: 49.4 µM
SK-MEL-28 melanoma
  TGI: > 100 µM
TK-10 renal
  TGI: > 100 µM
OVCAR-3 ovarian
  TGI: 79.3 µM
KM12 colon
  TGI: > 100 µM
BT-549 breast
  TGI: > 100 µM
SF-268 CNS
  TGI: 76.7 µM
786-0 renal
  TGI: 69.1 µM
SK-MEL-5 melanoma
  TGI: 35.6 µM
UO-31 renal
  TGI: > 100 µM
PC-3 prostate
  TGI: > 100 µM
SK-OV-3 ovarian
  TGI: 94.6 µM
A549 NSCLC
  TGI: > 100 µM
A498 renal
  TGI: 74.5 µM
SF-539 CNS
  TGI: > 100 µM
HL-60(TB) leukemia
  TGI: 51.9 µM
HOP-62 NSCLC
  TGI: 69.7 µM
DU-145 prostate
  TGI: > 100 µM
M14 melanoma
  TGI: 43.8 µM
HCT-116 colon
  TGI: 60.2 µM
LOX IMVI melanoma
  TGI: 30.3 µM
RPMI-8226 leukemia
  TGI: 78.9 µM
SW-620 colon
  TGI: 57 µM
UACC-257 melanoma
  TGI: > 100 µM
EKVX NSCLC
  TGI: 70.2 µM
MDA-MB-435
  TGI: 39.8 µM
NCI-H460 lung
  TGI: > 100 µM
HOP-92 NSCLC
  TGI: 65.6 µM
SNB-19 CNS
  TGI: 71.3 µM
OVCAR-8 ovarian
  TGI: 42.8 µM
CCRF-CEM leukemia
  TGI: 77.6 µM
K-562 leukemia
  TGI: 86.4 µM
HCT-15 colon
  TGI: 34.1 µM
T-47D breast
  TGI: 75.9 µM
UACC-62 melanoma
  TGI: 54.1 µM
HT29 colon
  TGI: 48.1 µM
IGROV1 ovarian
  TGI: > 100 µM
OVCAR-4 ovarian
  TGI: > 100 µM
SN12C renal
  TGI: 79.7 µM
NCI-H522 lung
  TGI: 37.4 µM
HS 578T breast
  TGI: > 100 µM
SF-295 CNS
  TGI: > 100 µM
CAKI-1 renal
  TGI: 45 µM
MOLT-4 leukemia
  TGI: 45.1 µM
ACHN renal
  TGI: > 100 µM
NCI-H226 lung
  TGI: 93.6 µM
NCI-H23 lung
  TGI: 93.2 µM
MCF7 breast
  TGI: 62.5 µM
HCC-2998 colon
  TGI: 37.3 µM
MALME-3M melanoma
  TGI: 45 µM
COLO 205 colon
  TGI: 97.7 µM

## CCCCCCc1cc2cc(C(=O)Nc3cccc(C(F)(F)F)c3)c(=N)oc2cc1O
U251 CNS
  TGI: 3.5 µM
NCI/ADR-RES ovarian
  TGI: 7.42 µM
MDA-MB-231 breast
  TGI: 7.69 µM
RXF 393 renal
  TGI: 2.19 µM
SR leukemia
  TGI: 4.37 µM
SK-MEL-28 melanoma
  TGI: 27.6 µM
SNB-75 CNS
  TGI: 3.01 µM
TK-10 renal
  TGI: 46.6 µM
OVCAR-3 ovarian
  TGI: 10.7 µM
KM12 colon
  TGI: 10.3 µM
BT-549 breast
  TGI: 6.1 µM
SK-MEL-2 melanoma
  TGI: 5.68 µM
SF-268 CNS
  TGI: 19.1 µM
786-0 renal
  TGI: 6.27 µM
SK-MEL-5 melanoma
  TGI: 2.45 µM
UO-31 renal
  TGI: > 29.2 µM
PC-3 prostate
  TGI: 15.1 µM
SK-OV-3 ovarian
  TGI: 10.1 µM
OVCAR-5 ovarian
  TGI: 69.7 µM
A549 NSCLC
  TGI: 10.9 µM
A498 renal
  TGI: 14 µM
SF-539 CNS
  TGI: 3.59 µM
HL-60(TB) leukemia
  TGI: 6.98 µM
HOP-62 NSCLC
  TGI: 5.03 µM
DU-145 prostate
  TGI: 3.3 µM
M14 melanoma
  TGI: 6.18 µM
HCT-116 colon
  TGI: 4.57 µM
LOX IMVI melanoma
  TGI: 3.09 µM
RPMI-8226 leukemia
  TGI: > 20.3 µM
SW-620 colon
  TGI: > 46.1 µM
UACC-257 melanoma
  TGI: 8.95 µM
EKVX NSCLC
  TGI: 11.6 µM
MDA-MB-435
  TGI: 5.18 µM
NCI-H460 lung
  TGI: > 32.1 µM
HOP-92 NSCLC
  TGI: 2.14 µM
SNB-19 CNS
  TGI: > 44.3 µM
OVCAR-8 ovarian
  TGI: 3.72 µM
HCT-15 colon
  TGI: 4.36 µM
T-47D breast
  TGI: 1.04 µM
UACC-62 melanoma
  TGI: 6.02 µM
HT29 colon
  TGI: > 100 µM
IGROV1 ovarian
  TGI: 11.1 µM
OVCAR-4 ovarian
  TGI: 14.3 µM
SN12C renal
  TGI: 3.86 µM
NCI-H522 lung
  TGI: 2.67 µM
HS 578T breast
  TGI: 9.99 µM
SF-295 CNS
  TGI: 14.1 µM
CAKI-1 renal
  TGI: 11.5 µM
MOLT-4 leukemia
  TGI: 4.19 µM
ACHN renal
  TGI: > 34.7 µM
NCI-H226 lung
  TGI: 3.52 µM
NCI-H23 lung
  TGI: 1.76 µM
MCF7 breast
  TGI: 6.47 µM
HCC-2998 colon
  TGI: 15.8 µM
MALME-3M melanoma
  TGI: 6.2 µM
COLO 205 colon
  TGI: 21 µM
